Source: patent publication US10952436B2, “Microbiocidal quinoline (thio)carboxamide derivatives” (SYNGENTA PARTICIPATIONS AG, priority 2017, dated 2021)

Columns and labels:
[1] = test system: Botryotinia fuckeliana (Botrytis cinerea); assay: Botryotinia fuckeliana (Botrytis cinerea)/Liquid Culture (Gray Mould); type: cell-based; conditions: 200 ppm, liquid culture, compared to untreated control, 3-4 days after application, read-out: control of Botryotinia fuckeliana
[2] = test system: Fusarium culmorum; assay: microbe, parasite or virus in culture; type: cell-based; conditions: read-out: control of Fusarium culmorum
[3] = test system: Fusarium culmorum; assay: whole plant or invertebrate; type: in vivo; conditions: in Triticum aestivum, read-out: control of Fusarium culmorum
[4] = test system: Glomerella lagenarium (Colletotrichum lagenarium); assay: Glomerella lagenarium (Colletotrichum lagenarium)/Liquid Culture (Anthracnose); type: cell-based; conditions: Colletotrichum orbiculare; 200 ppm; liquid culture, compared to untreated control, 3-4 days after application; read-out: control of Glomerella lagenarium
[5] = test system: Monographella nivalis (Microdochium nivale); assay: Monographella nivalis (Microdochium nivale)/Liquid Culture (Foot Rot Cereals); type: cell-based; conditions: 200 ppm, liquid culture, compared to untreated control, 4-5 days after application, read-out: control of Monographella nivalis
[6] = test system: Magnaporthe grisea (Pyricularia oryzae); assay: microbe, parasite or virus in culture; type: cell-based; conditions: read-out: control of Magnaporthe grisea

| SMILES | inhibition of growth at 200 ppm [1] [%] | inhibition of growth at 200 ppm [2] [%] | pest or weed control at 200 ppm [3] [%] | inhibition of growth at 200 ppm [4] [%] | inhibition of growth at 200 ppm [5] [%] | melting point [°C] | inhibition of growth at 200 ppm [6] [%] |
| --- | --- | --- | --- | --- | --- | --- | --- |
| C=C(Cl)CC(Cc1ccccc1)C(=O)Nc1cnc2c(F)cccc2c1C (centres unmarked) [Compound E-5, 2-benzyl-4-chloro-N-(8-fluoro-4-methyl-3-quinolyl)pent-4-enamide] | ≥ 80 | ≥ 80 | ≥ 80 | ≥ 80 | ≥ 80 | 53 to 58 |  |
| CC(C)CC(C)(Cc1ccccc1)C(=O)Nc1cnc2c(Cl)cccc2c1 (centres unmarked) [Compound E-9, 2-benzyl-N-(8-chloro-3-quinolyl)-2,4-dimethyl-pentanamide] | ≥ 80 | ≥ 80 |  | ≥ 80 | ≥ 80 | 163 to 165 | ≥ 80 |
| C/C=C\CC(C)(Cc1ccccc1)C(=O)Nc1cnc2c(F)cccc2c1 (centres unmarked) [Compound E-28, (Z)-2-benzyl-N-(8-fluoro-3-quinolyl)-2-methyl-hex-4-enamide] | ≥ 80 | ≥ 80 | ≥ 80 | ≥ 80 | ≥ 80 | 128 to 130 | ≥ 80 |
| CC(Cc1ccccc1)C(=O)Nc1cnc2c(F)cccc2c1 (centres unmarked) [Compound E-31, N-(8-fluoro-3-quinolyl)-2-methyl-3-phenyl-propanamide] | ≥ 80 | ≥ 80 |  | ≥ 80 |  | 188 to 190 | ≥ 80 |
| COCN(C(=O)C(C)(Cc1ccccc1)CC(F)(F)F)c1cnc2c(F)cccc2c1 (centres unmarked) [Compound E-33, 2-benzyl-4,4,4-trifluoro-N-(8-fluoro-3-quinolyl)-N-(methoxymethyl)-2-methyl-butanamide] | ≥ 80 | ≥ 80 |  | ≥ 80 |  | 108 to 110 | ≥ 80 |
| COC(Cc1ccccc1)(CC(C)C)C(=O)Nc1cnc2c(F)cccc2c1 (centres unmarked) [Compound E-38, 2-benzyl-N-(8-fluoro-3-quinolyl)-2-methoxy-4-methyl-pentanamide] | ≥ 80 | ≥ 80 | ≥ 80 | ≥ 80 |  | 133 to 135 | ≥ 80 |
| CN(C(=O)C(C)(Cc1ccccc1)CC(F)(F)F)c1cnc2c(F)cccc2c1 (centres unmarked) [Compound E-42, 2-benzyl-4,4,4-trifluoro-N-(8-fluoro-3-quinolyl)-N,2-dimethyl-butanamide] | ≥ 80 | ≥ 80 |  | ≥ 80 |  | 137 to 139 | ≥ 80 |
| CC(C)=CC(C)(Cc1ccccc1)C(=O)Nc1cnc2c(F)cccc2c1 (centres unmarked) [Compound E-48, 2-benzyl-N-(8-fluoro-3-quinolyl)-2,4-dimethyl-pent-3-enamide] | ≥ 80 | ≥ 80 | ≥ 80 | ≥ 80 |  | 167 to 169 | ≥ 80 |
| CC(Cc1ccccc1)(CC(F)(F)F)C(=O)Nc1cnc2cccc(F)c2c1 (centres unmarked) [Compound E-49, 2-benzyl-4,4,4-trifluoro-N-(5-fluoro-3-quinolyl)-2-methyl-butanamide] | ≥ 80 | ≥ 80 |  |  |  | 140 to 142 | ≥ 80 |
| CC(Cc1ccccc1)(CC(F)(F)F)C(=O)Nc1cnc2cc(F)ccc2c1 (centres unmarked) [Compound E-52, 2-benzyl-4,4,4-trifluoro-N-(7-fluoro-3-quinolyl)-2-methyl-butanamide] | ≥ 80 | ≥ 80 |  | ≥ 80 | ≥ 80 | 180 to 182 | ≥ 80 |
| C=C(CC)CC(C)(Cc1ccccc1)C(=O)Nc1cnc2c(F)cccc2c1 (centres unmarked) [Compound E-54, 2-benzyl-N-(8-fluoro-3-quinolyl)-2-methyl-4-methylene-hexanamide] | ≥ 80 | ≥ 80 |  | ≥ 80 |  | 118 to 120 | ≥ 80 |
| C=C(C)CC(C)(Cc1ccccc1)C(=O)Nc1cnc2c(Br)cccc2c1 (centres unmarked) [Compound E-63, 2-benzyl-N-(8-bromo-3-quinolyl)-2,4-dimethyl-pent-4-enamide] | ≥ 80 | ≥ 80 | ≥ 80 |  |  | 165 to 169 | ≥ 80 |
| C=CCC(C)(Cc1ccccc1)C(=O)Nc1cnc2c(F)cccc2c1 (centres unmarked) [Compound E-78, 2-benzyl-N-(8-fluoro-3-quinolyl)-2-methyl-pent-4-enamide] | ≥ 80 | ≥ 80 | ≥ 80 | ≥ 80 | ≥ 80 | 146 to 149 |  |
| Cc1c(NC(=O)C(C)(Cc2ccccc2)CC(C)C)cnc2c(F)cccc12 (centres unmarked) [Compound E-84, 2-benzyl-N-(8-fluoro-4-methyl-3-quinolyl)-2,4-dimethyl-pentanamide] | ≥ 80 | ≥ 80 | ≥ 80 | ≥ 80 | ≥ 80 | 73 to 79 |  |
| CC(C)(C)C(Cc1ccccc1)C(=O)Nc1cnc2c(F)cccc2c1 (centres unmarked) [Compound E-88, 2-benzyl-N-(8-fluoro-3-quinolyl)-3,3-dimethyl-butanamide] | ≥ 80 | ≥ 80 | ≥ 80 |  |  | 212 to 215 | ≥ 80 |
| C=C(C)CC(Cc1ccccc1)C(=O)Nc1cc2cccc(F)c2nc1C (centres unmarked) [Compound E-92, 2-benzyl-N-(8-fluoro-2-methyl-3-quinolyl)-4-methyl-pent-4-enamide] | ≥ 80 | ≥ 80 | ≥ 80 | ≥ 80 |  | 97 to 99 |  |
| C=C(C)CC(Cc1ccccc1)C(=O)Nc1cnc2c(F)cccc2c1 (centres unmarked) [Compound E-94, 2-benzyl-N-(8-fluoro-3-quinolyl)-4-methyl-pent-4-enamide] | ≥ 80 | ≥ 80 |  | ≥ 80 | ≥ 80 | 170 to 172 |  |
| C=C(C)C[C@](C)(Cc1ccccc1)C(=O)Nc1cnc2c(F)cccc2c1 [Compound F-22, (2R)-2-benzyl-N-(8-fluoro-3-quinolyl)-2,4-dimethyl-pent-4-enamide] | ≥ 80 | ≥ 80 |  | ≥ 80 | ≥ 80 | 133 to 135 |  |
